Experimental findings from ChEMBL document CHEMBL4725381, “Synthesis and activity of isoleucine sulfonamide derivatives as novel botulinum neurotoxin serotype A light chain inhibitors” (Bioorg Med Chem, 2020) are described below.

Activity calls are given as the source filed them. The calls are words filed in the database; no cut-off is given here.

For orientation: inhibition means the drop in the measured response relative to a control, in per cent. In general, IC50 refers to the concentration needed to halve the response being measured.

Botulinum neurotoxin type A, sequence (P0DPI0 2-448 limits assumed): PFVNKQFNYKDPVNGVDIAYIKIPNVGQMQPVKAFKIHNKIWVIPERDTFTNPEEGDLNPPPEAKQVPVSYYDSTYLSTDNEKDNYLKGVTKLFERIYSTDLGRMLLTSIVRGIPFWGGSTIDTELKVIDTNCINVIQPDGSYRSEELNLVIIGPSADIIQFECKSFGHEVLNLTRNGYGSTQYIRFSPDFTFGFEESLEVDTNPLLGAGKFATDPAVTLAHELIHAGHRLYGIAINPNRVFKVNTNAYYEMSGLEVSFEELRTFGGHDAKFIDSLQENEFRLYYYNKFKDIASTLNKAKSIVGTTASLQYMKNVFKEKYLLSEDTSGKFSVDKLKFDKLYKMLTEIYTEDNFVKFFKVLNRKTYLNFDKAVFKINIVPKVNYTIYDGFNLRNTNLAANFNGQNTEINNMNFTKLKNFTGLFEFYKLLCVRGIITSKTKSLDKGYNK

In one experiment the target is Botulinum neurotoxin type A (Clostridium botulinum) (UniProt P0DPI0). Kind of experiment: Inhibition of Clostridium botulinum BoNT/A light chain at 30 uM using SNAPtide as substrate preincubated with enzyme for 2 mins followed by substrate addition and measured for 0-5 mins by FRET assay relative to control.
Botulinum neurotoxin type A (Clostridium botulinum), sequence (P0DPI0 2-448 limits assumed): as above
`CC[C@H](C)[C@H](NC(=O)c1cccc(-c2cccc(Cl)c2)c1)C(=O)NO` had an inhibition of 64%. `CC[C@H](C)[C@H](NS(=O)(=O)c1cccc(-c2cc3ccccc3o2)c1)C(=O)NO`: the inhibition is 61%. For the compound `CC(C)C[C@@H](NS(=O)(=O)c1cccc(-c2cc3ccccc3o2)c1)C(=O)NO`, the inhibition was 86%. With `CC[C@H](C)[C@H](NS(=O)(=O)c1cccc(-c2ccco2)c1)C(=O)NO`, the inhibition stood at 40%. The compound `CC(C)C[C@@H](NC(=O)c1cccc(-c2cc3ccccc3o2)c1)C(=O)NO` displayed an inhibition of 58%. Same read-out and setting: to `CC[C@H](C)[C@H](NC(=O)c1cccc(-c2cc(Cl)ccc2Cl)c1)C(=O)NO` belongs 68%; to `CC[C@@H](C)[C@@H](NC(=O)c1cccc(-c2cc3ccccc3o2)c1)C(=O)NO`, 16%. On to `CC[C@H](C)[C@H](NS(=O)(=O)c1cccc(-c2ccccc2Cl)c1)C(=O)NO`, for which the inhibition was determined as 50%.

For the compound `CC[C@H](C)[C@H](NS(=O)(=O)c1cccc(-c2cccc([N+](=O)[O-])c2)c1)C(=O)NO`, the inhibition came to 34%.

As to `CC[C@H](C)[C@H](NS(=O)(=O)c1cccc(-c2cccc(Cl)c2)c1)C(=O)NO`, the inhibition was determined as 44%. `CC[C@H](C)[C@H](NS(=O)(=O)c1cccc(-c2cc(Cl)ccc2Cl)c1)C(=O)NO` came in with an inhibition of 29%. For the compound `CC[C@H](C)[C@H](NS(=O)(=O)c1cccc(-c2ccc([N+](=O)[O-])cc2)c1)C(=O)NO`, the inhibition was determined as 41%. As for `CC[C@@H](C)[C@@H](NS(=O)(=O)c1cccc(-c2cc3ccccc3o2)c1)C(=O)NO`, the inhibition was determined as 94%. Still for that read-out and setting: for `CC[C@H](C)[C@H](NS(=O)(=O)c1cccc(-c2ccc(Cl)c(Cl)c2)c1)C(=O)NO` the value was 26%.

The compound `CCCC[C@H](NS(=O)(=O)c1cccc(-c2cc3ccccc3o2)c1)C(=O)NO` gave an inhibition of 44%. The compound `CC[C@H](C)[C@H](NC(=O)c1cccc(-c2ccccc2Cl)c1)C(=O)NO` gave an inhibition of 50%. The compound `CC[C@H](C)[C@H](NC(=O)c1cccc(-c2ccco2)c1)C(=O)NO` showed an inhibition of 58%. In turn, `CC[C@H](C)[C@H](NC(=O)c1cccc(-c2cc3ccccc3o2)c1)C(=O)NO` gave an inhibition of 80%. Same read-out and setting: for `CC[C@H](C)[C@H](NS(=O)(=O)c1cccc(-c2ccoc2)c1)C(=O)NO` the value was 14%; for `CC[C@H](C)[C@H](NS(=O)(=O)c1cccc(-c2c(Cl)cccc2Cl)c1)C(=O)NO`, 66%.

`CC[C@H](C)[C@H](NS(=O)(=O)c1cccc(-c2ccc(Cl)cc2Cl)c1)C(=O)NO` registered an inhibition of 48%. With `O=C(NO)C1(NS(=O)(=O)c2cccc(-c3cc4ccccc4o3)c2)CC1`, the inhibition result is “inactive”.

A further experiment has as its target Botulinum neurotoxin type A (Clostridium botulinum, UniProt P0DPI0). Kind of experiment: Inhibition of Clostridium botulinum BoNT/A light chain using SNAPtide as substrate preincubated with enzyme for 2 mins followed by substrate addition and measured for 0-5 mins by FRET assay.
As to `CC[C@@H](C)[C@@H](NS(=O)(=O)c1cccc(-c2ccccc2Cl)c1)C(=O)NO`, the IC50 amounted to 0.587 µM. The compound `CC[C@@H](C)[C@@H](NS(=O)(=O)c1cccc(-c2cc3ccccc3o2)c1)C(=O)NO` came in with an IC50 of 14 µM.
